Values after ≈ are worked out from the molar mass of the structure shown.
Assays:
E. coli AECO 1003, MDR [1] = experiment: Murine neutropenic thigh model; assay type: in vivo
Experimental: Activity is presented as the log10 difference in CFU/thigh after 24 hours of antibiotic treatment compared to CFU/thigh just prior to antibiotic treatment (2 hours post-infection). Total dose per 24 hours is shown; dosing was q12 hours. 6 mice per group. Inoculum=1.5×10^3 CFU.
(§1) The in vivo activity of Example 1 in the mouse neutropenic thigh model (Andes and Craig. Antimicrob Agents Chemother. 2002, 46:1665-1670) was determined against seven bacterial strains including susceptible Escherichia coli and Klebsiella pneumoniae; multi-drug resistant (MDR) clinical isolates of E. coli and K. pneumoniae that display resistance to multiple antibiotics (including AGs); MRSA; and two K. pneumoniae carbapenemases (KPC)-expressing strains (see Table 5). For this efficacy model, groups of six CD-1 mice were rendered neutropenic by two intraperitoneal injections of cyclophosphamide. The first injection was 150 mg/kg three days prior to infection (day −4), and the second injection was 100 mg/kg one day prior to infection (day −1). On study day 0, animals were inoculated intramuscularly (0.1 ml) with a known number of colony forming units (CFU) of the specified bacterial strain (ATCC 25922, AECO 1003, ATCC 43816, AKPN 1073, AKPN 1109, ATCC 33591 or ASMA 1030), tailored to the virulence of each strain in the model to maximize bacterial load while avoiding mortality in the untreated control arms. Antibiotics were administered via subcutaneous injection at 2 and 14 hours after bacterial challenge. At 26 hours, infected thigh tissue was harvested, homogenized, and plated to count CFU. Untreated control animals were harvested at 2 hours post-infection to assess the initial bacterial load and at 26 hours post-infection to measure growth in the absence of antibiotic treatment.

Pathogens (169 in total) = experiment: Susceptibility testing, all urinary tract infection isolates; assay type: cell-based; conditions: all isolates
Experimental: (§2) Minimum inhibitory concentrations (MIC) were determined by reference Clinical and Laboratory Standards Institute (CLSI) broth microdilution methods per M7-A7 [2006]. Quality control ranges utilizing E. coli ATCC 25922, P. aeruginosa ATCC 27853 and S. aureus ATCC 29213, and interpretive criteria for comparator agents were as published in CLSI M100-S17 [2007]. Briefly, serial two-fold dilutions of the test compounds were prepared at 2× concentration in Mueller Hinton Broth. The compound dilutions were mixed in 96-well assay plates in a 1:1 ratio with bacterial inoculum. The inoculum was prepared by suspension of a colony from an agar plate that was prepared the previous day. Bacteria were suspended in sterile saline and added to each assay plate to obtain a final concentration of 5×10^5 CFU/mL. The plates were incubated at 35° C. for 20 hours in ambient air.
In order to determine the activity of representative antibacterial aminoglycoside compounds against bacterial species that commonly cause complicated urinary tract infections worldwide, isolates were collected from 47 medical centers in the U.S. and Europe (10 countries) from urine or blood culture with the source of bacteremia documented as a urinary tract infection. Strains were susceptibility tested against Example 1, gentamicin, amikacin and 10 comparators by CLSI broth microdilution. These MIC assays were conducted following the same protocol as set forth in Example 110. Pathogens (169 in total) included E. coli, Klebsiella spp., Enterobacter spp., Citrobacter spp., P. mirabilis, M. Morganii, P. aeruginosa, S. aureus and S. saprophyticus.

[2] = system: S. aureus ATCC 33591, MRSA; experiment: Murine neutropenic thigh model; assay type: in vivo
Experimental: FIG. 4 is a line graph showing dose-responses of Example 1, arbekacin, gentamicin, vancomycin, and daptomycin in a murine neutropenic thigh model against an MRSA (ATCC 33591). Activity is presented as the log10 difference in CFU/thigh after 24 hours of antibiotic treatment compared to CFU/thigh just prior to antibiotic treatment (2 hours post-infection). Total dose per 24 hours is shown; dosing was q12 hours. 6 mice per group, Inoculum=1.2×10^3 CFU.
as §1

[3] = system: K. pneumoniae AKPN 1073, MDR; experiment: MIC of thigh model strain; assay type: cell-based; conditions: Klebsiella pneumoniae; Table 5; K. pneumoniae MDR AKPN 1073
Experimental: as §2

[4] = system: K. pneumoniae ATCC 43816, Susceptible; experiment: MIC of thigh model strain; assay type: cell-based; conditions: Klebsiella pneumoniae, ATCC43816; Table 5; K. pneumoniae Susceptible ATCC 43816
Experimental: as §2

[5] = system: S. aureus ATCC 33591, MRSA; experiment: MIC of thigh model strain; assay type: cell-based; conditions: Staphylococcus aureus; Table 5; S. aureus MRSA ATCC 33591; read-out: MIC
Experimental: as §2

E. coli AECO 1003, MDR [6] = experiment: MIC of thigh model strain; assay type: cell-based; conditions: Escherichia coli; Table 5; E. coli MDR AECO 1003; read-out: MIC
Experimental: as §2

[7] = system: K. pneumoniae AKPN 1109, KPC; experiment: Murine neutropenic thigh model; assay type: in vivo
Experimental: Activity is presented as the log10 difference in CFU/thigh after 24 hours of antibiotic treatment compared to CFU/thigh just prior to antibiotic treatment (2 hours post-infection). Total dose per 24 hours is shown; dosing was q12 hours. 6 mice per group, Inoculum=8.3×10^5 CFU.
as §1

[8] = system: K. pneumoniae ATCC 43816, Susceptible; experiment: Murine neutropenic thigh model; assay type: in vivo
Experimental: as §1

[9] = system: E. coli ATCC 25922, Susceptible; experiment: Murine neutropenic thigh model; assay type: in vivo
Experimental: as §1

[10] = system: S. marcescens ASMA 1030, KPC; experiment: Murine neutropenic thigh model; assay type: in vivo
Experimental: as §1

seven bacterial strains = experiment: Murine neutropenic thigh model, all strains; assay type: in vivo
Experimental: as §1, with “Untreated control animals were harvested at 2 hours post-infection to assess the initial bacterial load and at 26 hours post-infection to measure growth in the absence of antibiotic treatment.” left out

[11] = system: A. calcoaceticus AACA005, AAC(6′)-I; experiment: MIC, aminoglycoside resistant strain; assay type: cell-based; conditions: Table 3
Experimental: as §2
(§3) These MIC assays were conducted following the same protocol as set forth in Example 110. As shown, substituted sisomicin derivatives with groups other than methyl at the 6′-position have improved activity against strains expressing the AAC6′-modifying enzymes.

[12] = system: E. coli AECO040, AAC(6′)-I; experiment: MIC, aminoglycoside resistant strain; assay type: cell-based; conditions: Table 3
Experimental: as §2, §3

[13] = system: S. marcescens ASMA003, ANT(2″) + AAC(6′); experiment: MIC, aminoglycoside resistant strain; assay type: cell-based; conditions: Table 3
Experimental: as §2, §3

CN[C@@H]1[C@@H](O)[C@@H](O[C@@H]2[C@@H](O)[C@H](O[C@H]3OC(CNCCO)=CC[C@H]3N)[C@@H](N)C[C@H]2NC(=O)[C@@H](O)CCN)OC[C@]1(C)O [Example 1, 6′-(2-Hydroxy-ethyl)-1-(4-amino-2(S)-hydroxy-butyryl)-sisomicin]
ED50/MIC (E. coli AECO 1003, MDR [1]; E. coli AECO 1003): 14.6
ED50 (E. coli AECO 1003, MDR [1]; Escherichia coli, sc, neutropenic CD-1 mice, subcutaneous at 2 and 14 hours, E. coli AECO 1003): 14.6 mg/kg
bacterial titer after 24 hours of treatment versus initial bacterial load at 2 hours post-inoculation (E. coli AECO 1003, MDR [1]; highest dosage, challenge 1.5×10^3 CFU AECO 1003, FIG. 1): reduced to below the initial bacterial load
% of strains inhibited (Pathogens (169 in total); at ≦4 μg/ml): 90.5%
% of strains inhibited (Pathogens (169 in total); at ≦16 μg/ml): 98.8%
ED50/MIC ([2]; S. aureus ATCC 33591): 4.8-9.7
ED50 ([2]; Staphylococcus aureus, sc, neutropenic CD-1 mice, subcutaneous at 2 and 14 hours, S. aureus ATCC 33591): 38.7 mg/kg
bacterial load after 24 hours of treatment versus initial bacterial load at 2 hours post-inoculation ([2]; two highest dosages, challenge 1.2×10^3 CFU ATCC 33591, FIG. 4): reduced to below the initial bacterial load
MIC [3]: 0.5 µg/mL
MIC [4]: 0.5 µg/mL
MIC [5]: 4 to 8 µg/mL
MIC (E. coli AECO 1003, MDR [6]): 1 µg/mL
ED50/MIC ([7]; K. pneumoniae AKPN 1109): 18-37
ED50 ([7]; Klebsiella pneumoniae, sc, neutropenic CD-1 mice, subcutaneous at 2 and 14 hours, K. pneumoniae AKPN 1109): 9.2 mg/kg
bacterial load after 24 hours of treatment versus initial bacterial load at 2 hours post-inoculation ([7]; highest test dosage, challenge 8.3×10^5 CFU AKPN 1109, FIG. 3): reduced back to the level of the initial bacterial load
ED50/MIC [8]: 7.4
ED50 ([8]; Klebsiella pneumoniae, ATCC43816, sc, neutropenic CD-1 mice, subcutaneous at 2 and 14 hours): 3.7 mg/kg
ED50/MIC [9]: 8.4
ED50 ([9]; Escherichia coli, ATCC25922, sc, neutropenic CD-1 mice, subcutaneous at 2 and 14 hours): 8.4 mg/kg
ED50/MIC [10]: 16.5
ED50 ([10]; Serratia marcescens, sc, neutropenic CD-1 mice, subcutaneous at 2 and 14 hours): 16.5 mg/kg
bacterial titers versus initial bacterial load (static level) (seven bacterial strains; all 7 strains): reducing bacterial titers back to or below the initial bacterial load
in vivo efficacy in words (seven bacterial strains; gentamicin resistant strains): efficacious
MIC AACA005 [11]: 2 µg/mL (≈ 3.37 µM)
MIC AECO040 [12]: 0.5 µg/mL (≈ 0.844 µM)
MIC ASMA003 [13]: 2 µg/mL (≈ 3.37 µM)
